Test results reported in PubChem BioAssay (NCI).
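Interpolation was linear, between the two tested concentrations surrounding the appropriate level; five concentrations were tested over 48 hours in 96-well plates. TGI marks complete inhibition of growth.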

Key:
Assay in all cases: DTP human tumour cell line panel, 48 h
HOP-62 NSCLC = system: HOP-62 NSCLC
HCT-116 colon = system: HCT-116 colon
NCI-H23 lung = system: NCI-H23 lung
SK-OV-3 ovarian = system: SK-OV-3 ovarian
PC-3 prostate = system: PC-3 prostate
SK-MEL-5 melanoma = system: SK-MEL-5 melanoma
U251 CNS = system: U251 CNS
COLO 205 colon = system: COLO 205 colon
ACHN renal = system: ACHN renal
NCI-H460 lung = system: NCI-H460 lung

Row | Structure (SMILES) | TGI (HOP-62 NSCLC) [µM] | TGI (HCT-116 colon) [µM] | TGI (NCI-H23 lung) [µM] | TGI (SK-OV-3 ovarian) [µM] | TGI (PC-3 prostate) [µM] | TGI (SK-MEL-5 melanoma) [µM] | TGI (U251 CNS) [µM] | TGI (COLO 205 colon) [µM] | TGI (ACHN renal) [µM] | TGI (NCI-H460 lung) [µM]
1 | CC(=O)NC(C)c1ccc(N=NN2CCCC2)cc1 (stereo not drawn) | > 100 | > 100 | > 100 | > 100 | > 100 | > 100 | > 100 | > 100 | > 100 | –
2 | C=CC[N+](CCO)(CCO)CCCCCCCCCCCCCCCCCC | 27.3 | 14.7 | 44.9 | 27.9 | – | 25.6 | 4.48 | 11 | – | 19.2
3 | COc1cc(/C=C2\N=C(C)N(n3c(-c4ccccc4)nc4ccccc4c3=O)C2=O)cc(OC)c1OC | > 100 | > 100 | > 100 | > 100 | > 100 | > 100 | – | > 100 | > 100 | > 100
4 | COc1c(-c2cccs2)oc2c(CC(=O)O)cccc2c1=O | > 100 | > 100 | > 100 | > 100 | > 100 | > 100 | > 100 | > 100 | – | –
5 | N/C(=N\N=C\c1cc2c(cc1Cl)OCO2)NO | > 100 | > 100 | > 100 | > 92.5 | – | 58.9 | > 100 | > 100 | – | > 100
6 | CCOC(=O)c1nc2cc(C(F)(F)F)ccc2nc1Nc1ccc(F)cc1 | > 100 | > 100 | > 100 | > 100 | > 100 | > 100 | > 100 | > 100 | – | > 100
7 | CN(C)CCNC(=O)c1cccc2[nH]c(-c3ccncc3)nc12 | 52.8 | 9.82 | 32.1 | – | > 24.3 | 7.27 | 9.82 | 3.26 | 28.4 | 8.22
8 | COc1ccc(/C=N\NC(=O)Nc2cccc3ccccc23)cc1 | 26.5 | > 100 | > 100 | – | > 100 | > 100 | 36.5 | > 100 | 66.6 | 40.2
9 | Cc1ccc(S(=O)(=O)C2c3nc4ccccc4cc3-c3nc4ccccc4nc32)cc1 (stereo not drawn) | > 100 | > 100 | > 100 | > 100 | – | > 100 | > 100 | > 100 | > 100 | –
10 | COc1cc([C@@H]2c3cc4c(cc3[C@@H](N=Cc3ccc(C(=O)O[C@@H](C(=O)O[C@H]5C[C@@]6(O)[C@@H](OC(=O)c7ccccc7)[C@@H]7[C@]8(OC(C)=O)CO[C@@H]8C[C@H](O)[C@@]7(C)C(=O)[C@H](OC(C)=O)C(=C5C)C6(C)C)[C@@H](NC(=O)c5ccccc5)c5ccccc5)cc3)[C@H]3COC(=O)[C@H]23)OCO4)cc(OC)c1O | > 50 | > 50 | > 18.5 | > 22.7 | – | > 50 | > 16.9 | – | > 50 | > 50
11 | COc1ccc(/C(Cl)=C(\C=O)c2ccccc2)cc1OC | 81.8 | > 100 | > 100 | > 100 | – | > 100 | > 100 | 22.4 | > 100 | > 100
12 | CC(O)c1cc2c(s1)C(=O)c1scc(C(C)O)c1C2=O (stereo not drawn) | – | 2.64 | 0.415 | 7.76 | 3.48 | 0.351 | 4.07 | 3.66 | 2.47 | 2.1
